Assay results taken from PMC4775864 (Theranostics, 2016).
No end group written: not given here.

Target: T1, endogenous EMMPRIN (Mus musculus, UniProt P18572)
T1 sequence (P18572 22-273 isoform P18572-2 limits assumed): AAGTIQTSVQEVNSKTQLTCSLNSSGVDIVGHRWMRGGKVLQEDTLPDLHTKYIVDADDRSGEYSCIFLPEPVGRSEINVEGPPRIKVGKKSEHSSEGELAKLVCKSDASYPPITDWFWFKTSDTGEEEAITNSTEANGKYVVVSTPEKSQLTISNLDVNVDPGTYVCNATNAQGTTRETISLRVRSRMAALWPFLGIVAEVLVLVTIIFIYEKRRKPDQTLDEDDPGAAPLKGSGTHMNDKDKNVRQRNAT
Experiment: Affinity measurements: fluorescence binding to adherent HL1 cells

YKLPGHHHHYRP [AP-9]
Kd: 8 ± 0.6 nM
